Laboratory results published in patent publication EP4474386A1, “ANTHRACYCLINES” (priority 2023, dated 2024).
Entries after “also recorded” stand apart in the source; their conditions may differ.

Key:
[1] = tested on: γH2AX levels in K562 cells; assay: Assay 3: Western blot of γH2AX levels (DNA damage); format: cell-based, human; conditions: 10 µM, 2 h, FIGS. 3A & 3B
Procedure: Cells were seeded into 12-well format (e.g. 250.000 cells/well for K562, or Mjs), treated with indicated drugs at 10 µM for 2 hours. Subsequently, drugs were removed by extensive washing and cells were collected and processed immediately for the assays. Cells were lysed directly in SDS-sample buffer (2%SDS, 10% glycerol, 5% β-mercaptoethanol, 60mM Tris-HCl pH 6.8 and 0.01% bromophenol blue). Samples were separated by SDS-PAGE and transferred to a PVDF membrane (Immobilon-P, 0.45µm, Millipore). Blocking of the filters and antibody incubations were done in PBS supplemented with 0.1 (v/v)% Tween and 5% (w/v) milk powder (Skim milk powder, LP0031, Oxiod). Blots were imaged by the Odyssey Classic imager (Li-Cor). Intensity of bands was quantified using imaged or Image Studio software. For CFGE: DNA double strand breaks were quantified by constant-field gel electrophoresis as described in Wlodek D., Banáth J., & Olive P. L., International Journal of Radiation Biology, 1991, 60:5, 779-790. Images were quantified using imaged software.
Primary antibodies used for Western blotting: γH2AX (1:1000, 05-036, Millipore), β-actin (1:10000, A5441, Sigma). […]
Assay 3. […] This was determined by assessing γH2AX levels (see Kuo, L. J., Yang, L. X. In Vivo. April 2008, pp 305-310) using the assay for Western blot analysis described herein. […]

MelJuSo-PAGFP-H2A cells = assay: Assay 4: Microscopy analysis, PAGFP-H2A photoactivation and time-lapse confocal imaging (histone eviction); format: cell-based, human; conditions: 10 µM, 1 hour time-lapse; FIG. 4A
Procedure: For PAGFP-H2A photoactivation and time-lapse confocal imaging, cells were seeded in a 35mm glass bottom petri dish (Poly-dlysine-Coated, MatTek Corporation), and imaged 16 hours later as described in Pang, B., Qiao, X., Janssen, L. et al. Nat Commun 4, 2013, 1908 for one hour following addition of 10µM of the indicated drugs. Time-lapse confocal imaging was performed on a Leica SP8 confocal microscope system 63x lens, equipped with a climate chamber. Movies were quantified using imaged software.
Assay 4. This assay visualised histone eviction and subsequently, the chromatin damage induced by the compounds embodying the present invention could be assessed. The method followed is described in the assay for microscopy analysis described herein.

[2] = tested on: DNA double-strand breaks in K562 cells; assay: Assay 2: Constant-field gel electrophoresis (CFGE), DNA double-strand breaks; format: cell-based, human; conditions: 10 µM, 2 hours, FIGS. 3C & 3D
Procedure: Cells were seeded into 12-well format (e.g. 250.000 cells/well for K562, or Mjs), treated with indicated drugs at 10 µM for 2 hours. Subsequently, drugs were removed by extensive washing and cells were collected and processed immediately for the assays. DNA double strand breaks were quantified by constant-field gel electrophoresis as described in Wlodek D., Banáth J., & Olive P. L., International Journal of Radiation Biology, 1991, 60:5, 779-790. Images were quantified using imaged software.
Assay 2. Because anthracycline drugs can also evict histones, including H2AX, the levels of phosphorylated H2AX might be affected. To determine DNA double-strand break induction by the compounds embodying the present invention at the DNA level, we assessed the DNA damage capacity of all the compounds by using constant field gel electrophoresis (CFGE), as described below, a more direct method to detect DNA breaks. The results are set out in FIGS. 3C & 3D.

[3] = tested on: human myelogenous leukemic cell line K562; assay: Assay 1: Short-term growth inhibition viability assay (CellTiter-Blue); format: cell-based; conditions: K562 cells
Procedure: Cells were seeded into 96-well format (e.g. 2000 cells/well for K562, Mjs, or U2O cells). 24 hours after seeding, cells were treated with indicated compounds for 2 hours at various concentrations. Subsequently, compounds were removed, and cells were left to grow for an additional 72 hours. Cell viability was measured using the CellTiter-Blue viability assay (Promega). Relative survival was normalized to the untreated control and corrected for background signal.
K562 cells (B. Pang, Leiden University Medical Center, the Netherlands) were maintained in RPMI-1640 medium supplemented with 8% FCS. MelJuSo cells were maintained in IMDM supplemented with 8% FCS. MelJuSo cells stably expressing PAGFP-H2A were maintained in IMDM supplemented with 8% FCS and G-418, as described in Pang, B., Qiao, X., Janssen, L. et al. Nat Commun 4, 1908 (2013). U2Os cells (ATCC® HTB-96) were maintained in DMEM medium supplemented with 8% FCS. Cell lines were maintained in a humidified atmosphere of 5% CO2 at 37°C, regularly tested for the absence of mycoplasma and the origin of cell lines was validated using STR analysis.
Assay 1. Anthracyclines are often used in the treatment of acute myeloid leukaemia and other haematological malignancies. Therefore, the compounds shown in FIG. 1 were assayed for their activity versus human myelogenous leukemic cell line K562 in order to determine their cytotoxicity in vitro, using the assay for short-term growth inhibition viability described herein. […] IC50 is expressed in µM and represents the concentration of compound required to inhibit cell proliferation by 50%.

SMILES | DNA damage (γH2AX levels) [1] | chromatin damage / rate of histone eviction (in words) (MelJuSo-PAGFP-H2A cells) | DNA double-strand break induction (CFGE) [2] | cytotoxicity (in words, compared with reference anthracyclines) ([3]; FIG. 2A) | IC50 ([3]; 2 hours treatment, then 72 hours growth) | times more cytotoxic than doxorubicin (1) ([3]; relative to doxorubicin (1))
CC(=O)[C@]1(O)Cc2c(O)c3c(c(O)c2[C@@H](O[C@H]2C[C@H](N(C)C)[C@H](O)[C@H](C)O2)C1)C(=O)c1ccccc1C3=O [Compound 18, N,N-dimethylidarubicin] | did not induce DNA damage | superior chromatin damage activity relative to doxorubicin (1); also recorded: improved or comparable toxicity and rate of histone eviction relative to doxorubicin (1) and idarubicin (17) | do not induce DNA; also recorded: does not induce any DNA double-strand breaks |  |  | 
CC(=O)[C@]1(O)Cc2c(O)c3c(c(O)c2[C@@H](O[C@H]2C[C@H](N(C)C)[C@H](O[C@H]4C[C@H](O)[C@H](O[C@H]5CCC(=O)[C@H](C)O5)[C@H](C)O4)[C@H](C)O2)C1)C(=O)c1ccccc1C3=O [Compound 26, 7-[2,3-Dideoxy-4-ulo-α-L-fucopyranosyl-2-deoxy-α-L-fucopyranosyl-(1→4)- -2,3-dideoxy-3-dimethylamino-α-L-fucopyranoside]-idarubicinone] | did not induce DNA damage | superior chromatin damage activity relative to doxorubicin (1); also recorded: fastest histone eviction activity; also recorded: more efficient in terms of histone eviction | do not induce DNA; also recorded: not inducing any DNA double-strand breaks | considerably more cytotoxic than doxorubicin (1); also recorded: most effective compound tested; also recorded: more toxic than doxorubicin (1), aclarubicin (2) and idarubicin (17) | 20 nM | 16 times
